Reference: paper PMC4889062, “Tachykinin-Related Peptides Share a G Protein-Coupled Receptor with Ion Transport Peptide-Like in the Silkworm Bombyx mori” (PLoS ONE, 2016)
One block for each molecule: values may come before it. Peptide text beside a SMILES is read from it.

What was measured:
[1] = target: EGFP-fused BNGR-A24 (Bombyx mori neuropeptide G protein-coupled receptor A24) (Bombyx mori) (UniProt B3XXN7)
BNGR-A24 [2] = target: T1, BNGR-A24 (Bombyx mori, UniProt B3XXN7); experiment: cell-based
T1 sequence (B3XXN7 1-391): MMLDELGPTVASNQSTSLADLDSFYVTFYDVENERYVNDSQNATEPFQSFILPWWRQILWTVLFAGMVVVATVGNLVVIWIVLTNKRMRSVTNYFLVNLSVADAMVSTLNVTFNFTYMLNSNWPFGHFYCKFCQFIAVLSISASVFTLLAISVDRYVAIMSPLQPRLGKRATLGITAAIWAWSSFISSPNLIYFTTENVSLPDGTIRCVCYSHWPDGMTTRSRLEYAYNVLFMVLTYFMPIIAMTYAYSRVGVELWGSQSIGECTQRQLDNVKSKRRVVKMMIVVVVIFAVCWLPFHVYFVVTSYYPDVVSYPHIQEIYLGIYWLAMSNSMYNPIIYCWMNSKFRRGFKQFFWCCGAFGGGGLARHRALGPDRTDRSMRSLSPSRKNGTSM
Protocol: (§1) The assays were performed as previously reported. Briefly, HEK293T cells seeded on a glass-based dish were co-transfected with pME18S plasmids carrying BNGRs and the promiscuous G protein alpha subunit, Gα15. Following 24 h incubation, the transfected cells were loaded with 500 μL of a Ca^2+ indicator solution (2 μM Fluo-4 AM [Dojin Chemicals, Kumamoto, Japan] and 0.01% Pluronic-F 127 [Anaspec, San Jose, CA, USA] in Opti-MEM [Life Technologies]) and incubated at 37°C for 30 min in a dark room. The cells were washed twice with Ringer’s solution and then 800 μL Ringer’s solution was added to the cells. Within a given run time, 100 μL of the following compounds were added sequentially: Ringer’s solution (at 15 s, vehicle control), the peptide of interest or a mixture with its potential competitor (at 60 s), and 100 μM ATP (at 120 s, an experimental control). Fluo-4-derived fluorescence was chronologically monitored using a confocal laser-scanning microscope (FV-1000D; Olympus, Tokyo, Japan), with the preinstalled dye mode for Fluo-3. At least three independent experiments were performed. Dose-response curves were generated and EC50 values were calculated from the obtained fitting curves.
In order to evaluate whether the three TRP receptor candidates, BNGR-A24, -A32, and -A33, function as receptors for B. mori TRPs, the response of these three BNGRs to chemically synthesized TRPs was examined using the Ca^2+ imaging assay.
The response of HEK293T cells co-expressing BNGR-A24 (A) or BNGR-A32 (B) and promiscuous mouse Gα15 to the TRPs was monitored using the Ca^2+ imaging technique. Dose-response curves are depicted as relative fluorescent intensity (mean ± S.D.; n = 3).

BNGR-A32 = target: T2, BNGR-A32 (Bombyx mori, UniProt B3XXP5); experiment: Ca2+ imaging assay of BNGR-A32 in HEK293T cells co-expressing Gα15; type: cell-based; conditions: HEK293T cells co-expressing BNGR-A32 and promiscuous mouse Gα15; Fluo-4 Ca2+ imaging; from fitted dose-response curves, n = 3
T2 sequence (B3XXP5 1-372): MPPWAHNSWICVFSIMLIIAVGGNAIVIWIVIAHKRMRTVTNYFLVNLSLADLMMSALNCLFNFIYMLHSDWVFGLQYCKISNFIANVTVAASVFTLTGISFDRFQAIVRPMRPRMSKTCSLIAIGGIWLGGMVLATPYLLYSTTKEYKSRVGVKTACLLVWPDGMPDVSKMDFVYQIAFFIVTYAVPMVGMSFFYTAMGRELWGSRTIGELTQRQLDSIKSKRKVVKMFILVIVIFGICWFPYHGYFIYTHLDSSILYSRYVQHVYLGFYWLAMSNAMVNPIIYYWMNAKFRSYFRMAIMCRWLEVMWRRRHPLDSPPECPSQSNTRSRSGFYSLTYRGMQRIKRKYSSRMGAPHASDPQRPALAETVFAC
Protocol: as §1, with “curves. […]” for “curves.”
The response of HEK293T cells co-expressing BNGR-A24 (A) or BNGR-A32 (B) and promiscuous mouse Gα15 to the TRPs was monitored using the Ca^2+ imaging technique. […]

[3] = target: EGFP-fused BNGR-A24 (Bombyx mori neuropeptide G protein-coupled receptor A24) (Bombyx mori) (UniProt B3XXN7); experiment: fluorescent-ligand binding on cells (confocal microscopy); CHO cells expressing EGFP-fused BNGR-A24, pre-incubated at 4°C for 30 min; unlabeled competitor added, then RR-labeled ligand; 4°C for 60 min; washed and fixed (4% formaldehyde in PBS); RR fluorescence normalized by EGFP
BNGR-A24 [4] = target: T1, BNGR-A24; experiment: Ca2+ imaging assay of BNGR-A24 with competitor added together with the ligand; type: cell-based
Protocol: The assays were performed as previously reported. […] At least three independent experiments were performed.
Next, we examined the effect of simultaneous addition of spantide I and rITPL on ligand competition. The dose-response curve of 10–300 nM rITPL shifted in a similar manner to that observed for TK-4.
Fig 3 Effect of spantide I on the response of BNGR-A24 to rITPL and TK-4. Spantide I (SP), a potential competitor, was added together with rITPL or TK-4 and the response of BNGR-A24 was monitored using the Ca^2+ imaging assay. Dose-response curves of the responses are presented as relative fluorescent intensity (mean ± S.D.; n = 3). Asterisks indicate significant differences for treatment with the same ligand without spantide I (P < 0.05; Dunnett’s test).

BNGR-A24 [5] = target: T1, BNGR-A24; experiment: Competitive binding assay, RR-labeled ligands and CHO cells expressing EGFP-fused BNGR-A24; conditions: CHO cells, EGFP-fused BNGR-A24, 4°C
Protocol: Binding assays were performed as previously reported. Briefly, CHO cells were transfected with 2 μg of pME18S plasmids harboring enhanced green fluorescent protein (EGFP)-fused BNGR cDNA. The binding assay was performed with cells 24 h post transfection. The cells were pre-incubated at 4°C for 30 min prior to the assay to minimize receptor internalization by ligand binding. Following the addition of 50 μL of non-labeled ligand as a potential competitor, 50 μL of RR-labeled ligand was added. Subsequent to incubation at 4°C for 60 min, the cells were washed twice with an ice-cold fixation buffer (4% formaldehyde in PBS) and then 500 μL of the fixation buffer was added. The fluorescence derived from EGFP and RR was observed using a confocal microscope (FV-1000D) with preinstalled dye modes for EGFP and DsRed, respectively. The fluorescent data obtained from six individual cells of at least two independent experiments were analyzed using Fluoview software (Olympus).
Following 30-min exposure of the cells to RR-labeled rITPL or TK-4, both red fluorescence (derived from the RR-labeled ligands) and green fluorescence (derived from EGFP C-terminally fused to BNGR-A24) were observed on the cell surface, indicating ligand-receptor binding (Fig 4). […] In this case, the addition of 20 μM rITPL reduced the ligand-derived signal by approximately 90% compared to that observed without the addition of unlabeled ligand.
Fig 4 In vitro competitive binding assay of rITPL and TK-4 to BNGR-A24. (A–D) Microscopic imaging. The binding of RR-labeled ligands (A and C, rITPL; B and D, TK-4) and CHO cells expressing EGFP-fused BNGR-A24 was examined in the presence of potential competitors (A, TK-4; B, rITPL; C and D, spantide I [SP]). EGFP and RR fluorescences were observed by confocal microscopy. Co-localization is presented as yellow in the merged images (Merge). Representative images of cells from at least two independent experiments are shown. (E–H) Relative fluorescent intensity obtained from experiment images (A)–(D), respectively. […]

[6] = system: BmN cells (BNGR-A24-expressing); experiment: Competitive cGMP assay in BmN cells; type: cell-based, Bombyx mori; conditions: 30 min, IBMX
Protocol: BmN cells were plated in 12-well tissue culture plates (2 × 10^5 cells/well; Asahi glass, Yokohama, Japan) and maintained in normal growth medium (TC-100 [Applichem, Darmstadt, Germany], 10% FBS, and 50 μg/mL gentamycin). At 3 days post-seeding, the cells were pre-incubated in 800 μL of assay medium (TC-100 supplemented with 1 mM 1-methyl-3-isobutylxanthine [IBMX; Sigma-Aldrich, Tokyo, Japan]) and 1 mM phenylmethylsulfonyl fluoride for 10 min at 28°C. Following pre-incubation, 100 μL of a potential competitor and 100 μL of the peptide of interest were added sequentially to the medium and incubated at 28°C for 30 min. […] The extracted cAMP and cGMP were quantified in duplicate using a cAMP ELISA kit (Cayman Chemicals, Ann Arbor, MI, USA) and a cGMP EIA system (GE Healthcare, Hino, Japan), respectively. […]
Since ITPL and TK-4 are competitive ligands of BNGR-A24, we hypothesized that TK-4 might inhibit the cGMP signal induced by ITPL via the binding of ITPL to BNGR-A24. To confirm this hypothesis, we added an excess of TK-4 to BmN cells exposed to rITPL and evaluated the stimulatory effect of ITPL on the cGMP signal.
Fig 5 Effects of TK-4, rITPL, and spantide I on cyclic nucleotide levels in BmN cells. Intracellular cGMP (A) and cAMP (B) levels in BmN cells following 30-min incubation with the peptide and reagent of interest at the indicated concentrations were measured. […]

[7] = target: BNGR-A32 (Bombyx mori neuropeptide G protein-coupled receptor A32) (Bombyx mori)

EC50 of the Ca2+ imaging response (Fluo-4) of HEK293T cells co-expressing BNGR-A24 and Galpha15 [1]: 0.79 nM
Molecule: B. mori tachykinin-related peptide TK-3

Molecule: CC[C@H](C)[C@H](N)C(=O)N1CCC[C@H]1C(=O)N[C@@H](CCC(N)=O)C(=O)NCC(=O)N[C@@H](Cc1ccccc1)C(=O)N[C@@H](CC(C)C)C(=O)NCC(=O)N[C@@H](CCSC)C(=O)N[C@@H](CCCNC(=N)N)C(N)=O [TK-1] (H-IPQGFLGMR-NH2; N-terminus assumed)
EC50 (BNGR-A24 [2]): 7.1 nM

Molecule: CSCC[C@H](NC(=O)CNC(=O)[C@H](Cc1ccccc1)NC(=O)[C@H](Cc1ccccc1)NC(=O)CNC(=O)[C@H](CCSC)NC(=O)[C@H](CCC(N)=O)NC(=O)CN)C(=O)N[C@@H](CCCNC(=N)N)C(N)=O [TK-5] (H-GQMGFFGMR-NH2)
EC50 (BNGR-A24 [2]): 2.3 nM
EC50 (BNGR-A32): 0.48 nM

percent reduction of the RR-labeled TK-4 signal at 20 uM rITPL [3]: 90%
Molecule: Recombinant B. mori ion transport peptide-like (rITPL) (ligand)

EC50 of the Ca2+ imaging response (Fluo-4) of HEK293T cells co-expressing BNGR-A24 and Galpha15 [1]: 0.27 nM
Molecule: B. mori tachykinin-related peptide TK-4

Molecule: spantide I
Effect on response of BNGR-A24 to rITPL (BNGR-A24 [4]; 50 μM spantide I added with 10–300 nM rITPL, n = 3, vs no competitor): significantly lower
Effect on response of BNGR-A24 to TK-4 (BNGR-A24 [4]; simultaneous treatment with 10 μM or 50 μM spantide I, n = 3, Dunnett's test P < 0.05): significantly decreased
Fluorescence derived from RR-labeled TK-4 (BNGR-A24 [5]; 50 μM spantide I as competitor): nearly complete quenching
Fluorescence derived from RR-labeled rITPL (BNGR-A24 [5]; 50 μM spantide I as competitor): nearly complete quenching

Molecule: CC[C@H](C)[C@H](NC(=O)[C@H](Cc1ccccc1)NC(=O)[C@H](CCCCN)NC(=O)CNC(=O)[C@H](CCCNC(=N)N)NC(=O)[C@@H](NC(=O)[C@H](CO)NC(=O)[C@H](CC(C)C)NC(=O)[C@H](CC(=O)O)NC(=O)[C@H](Cc1ccc(O)cc1)NC(=O)[C@@H]1CCCN1)[C@@H](C)CC)C(=O)NCC(=O)N[C@H](C(=O)N[C@@H](CCCNC(=N)N)C(N)=O)C(C)C [TK-4] (H-PYDLSIRGKFIGVR-NH2; N-terminus assumed)
EC50 (BNGR-A24 [2]): 0.27 nM
Effect on rITPL-induced cGMP levels ([6]; BmN cells exposed to 100 nM rITPL, ≥3 μM TK-4 added as competitor): significant decrease
Intracellular cGMP levels ([6]; BmN cells, peptide alone at concentrations as high as 10 μM, 28°C, cGMP EIA): failed to increase
Fluorescence of RR-labeled rITPL on the cell surface (BNGR-A24 [5]; 1–100 μM unlabeled TK-4 added before RR-labeled rITPL): gradually decreased

EC50 of the Ca2+ imaging response (Fluo-4) of HEK293T cells co-expressing BNGR-A24 and Galpha15 [1]: 7.1 nM
Molecule: B. mori tachykinin-related peptide TK-1

EC50 of the Ca2+ imaging response (Fluo-4) of HEK293T cells co-expressing BNGR-A24 and Galpha15 [1]: 2.3 nM
EC50 of the Ca2+ imaging response (Fluo-4) of HEK293T cells co-expressing BNGR-A32 and Galpha15 [7]: 0.48 nM
Molecule: B. mori tachykinin-related peptide TK-5

EC50 of the Ca2+ imaging response (Fluo-4) of HEK293T cells co-expressing BNGR-A24 and Galpha15 [1]: 0.49 nM
Molecule: B. mori tachykinin-related peptide TK-2

Molecule: CSCC[C@H](NC(=O)[C@H](CC(N)=O)NC(=O)[C@H](C)NC(=O)[C@H](C)N)C(=O)N[C@@H](Cc1c[nH]cn1)C(=O)N[C@@H](CCC(N)=O)C(=O)N[C@@H](Cc1ccccc1)C(=O)N[C@@H](Cc1ccc(O)cc1)C(=O)NCC(=O)N[C@H](C(=O)N[C@@H](CCCNC(=N)N)C(N)=O)C(C)C [TK-3] (H-AANMHQFYGVR-NH2; N-terminus assumed)
EC50 (BNGR-A24 [2]): 0.79 nM
